# Measured values as given in patent US20230057133A1, “COMPOUND FOR THE TREATMENT AND PREVENTION OF CENTRAL NERVOUS SYSTEM DISORDERS” (ABAXYS THERAPEUTICS, priority 2019, published 2023).
# Assays:
# Format in all cases: in vivo, zebrafish
# zebra fish larvae [1] = test: Model of hyperdopaminergic activity: apomorphine-induced locomotor activity of zebra fish larvae
# Procedure: (§1) Compound was tested in zebrafish paradigms reaction to environmental stimuli, epileptic activity and dopaminergic hyperactivity. Zebrafish used in present studies were raised in regular conditions of housing in tanks of appropriate size and circadian rhythm (12:12 photoperiod, light/darkness). The aqueous medium used for the maintenance and experimental conditions was Instant Ocean®. The water maintained between at 27° C. or 29° C., pH between 7.2-7.5 and a conductivity value between 480-520 μS. Zebrafish embryos were placed in sterile petri dishes before being transferred to plates after the hatching.
# (§2) For experimental studies, larvae of up to 5 dpf were placed in flat bottom 96-well plates. At the treatment time, the medium was replaced by 150 μL fresh medium. Pentetrazole (PTZ) and/or Cmpd1 (treatment), or vehicle (control) were added (up to 210-240 μL) to the wells followed by video recording.
# (§3) Locomotion of larvae was recorded using Noldus daniovisio system equipped with infrared light detection. Ethovision XT15 software controlled the temperature of plate (28° C.) and chamber light conditions. The experimental recording was done with a cycle of light period (20 min) followed by dark period (45 min). After recording data were analysed using Ethovision XT15 software package. The distance moved by larvae was calculated for each period of 2 min recording (FIGS. 1 to 6 and 10) or as accumulated value of distance at 2 min (initiation), at 4 min at 10 min and at 20 min (switch to darkness) or at 60 min (end of recording) (FIGS. 7 and 8).
# (§4) All compounds were dissolved in medium or medium containing DMSO at indicated concentrations.
# The same methods as disclosed in Example 1 ware carried out for Example 2, except that the pentetrazole was replaced by apomorphine (APO).
# zebra fish larvae [2] = test: Model of epileptic activity: pentetrazole-induced locomotor activity of zebra fish larvae
# Procedure: as §1, §2, §3, §4
# zebra fish larvae [3] = test: Locomotion of zebra fish larvae treated with compound alone, light period followed by dark period; conditions: Cmpd1 100 μM alone versus vehicle; FIGS. 5 and 10
# Procedure: as §1, §2
# as §3, with “Ethovision XT15 software controlled the temperature of plate (28° C.) and chamber light conditions. The experimental recording was done with a cycle of light period (20 min) followed by dark period (45 min).” left out, “8). […]” for “8).”
structure (smiles),measurement,setting,value
"CN1CCc2cccc3c2[C@H]1Cc1ccc(O)c(O)c1-3 [apomorphine, reference compound]",locomotor activity (distance moved) versus vehicle,"zebra fish larvae [1]; apomorphine alone, 75 μM (FIG. 3) or 55 μM (FIG. 8), light conditions",clear increase of locomotor activity in light conditions
"C1CCc2nnnn2CC1 [pentetrazole, reference compound]",locomotor activity (distance moved) versus vehicle,"zebra fish larvae [2]; pentetrazole 10 mM alone, larvae up to 5 dpf, light 20 min then dark 45 min, FIGS. 1, 2, 6",clear increase of locomotor activity in both light and dark conditions
"CCOC(=O)C1CCN(C(=O)[C@H](C)N(c2ccc(C)cc2)S(C)(=O)=O)CC1 [Cmpd1, ethyl 1-(N-(methylsulfonyl)-N-(p-tolyl)alanyl)piperidine-4-carboxylate]",locomotion level compared with vehicle treated zebra fishes,"zebra fish larvae [2]; Cmpd1 100 μM, FIG. 2 open circles and FIG. 7",stabilizes locomotion to levels close to normal locomotion
same,locomotor activity induced by pentetrazole alone (distance moved),"zebra fish larvae [2]; co-treatment Cmpd1 100 μM + pentetrazole 10 mM, FIG. 2 and FIG. 7",decrease of the locomotor activity
same,conclusion of the epileptic activity model,"zebra fish larvae [2]; pentetrazole model, Cmpd1 100 μM",anti-epileptic activity
same,locomotion level compared with vehicle treated zebra fish,zebra fish larvae [1]; FIG. 5 and FIGS. 9 and 10,stabilizes locomotion to levels close to normal locomotion
same,conclusion of the hyperdopaminergic activity model,zebra fish larvae [1]; apomorphine model,stabilizer of the hyperdopaminergic activity
same,locomotor activity induced by apomorphine alone (distance moved),"zebra fish larvae [1]; co-treatment Cmpd1 100 μM + apomorphine 55 μM, FIG. 9",decrease of the locomotor activity
same,locomotor activity induced by apomorphine alone (distance moved),"zebra fish larvae [1]; co-treatment Cmpd1 100 μM + apomorphine 75 μM, FIG. 4",decrease of the locomotor activity
same,"apomorphine-induced locomotion activity, time course","zebra fish larvae [1]; first period of the assay, up to ~20 min, FIG. 9",reduces apomorphine-induced locomotion activity strongly
same,locomotion activity and peak due to change to dark condition,zebra fish larvae [3],maintains a low level of locomotion activity suppressing also the peak due to change to dark condition
